The NIST ThermoML archive (doi:10.1021/je2010209)

Experiment: xn = mol fraction of the nth substance listed
Conditions: 101 kPa, Liquid; for speed of sound: Sing-around technique in a fixed-path interferometer; for mass density: Vibrating tube method

COCCOCCO [2-(2-methoxyethoxy)ethanol] + CCCCn1cc[n+](C)c1.F[B-](F)(F)F
Conditions	mass density [kg/m3]	speed of sound [m/s]
288.15 K, x2 = 0	1024.6	1451
288.15 K, x2 = 0.0308	1035.12	1461
288.15 K, x2 = 0.1053	1059.04	1490
288.15 K, x2 = 0.2065	1086.98	1514
288.15 K, x2 = 0.3137	1110.84	1533
288.15 K, x2 = 0.4002	1126.77	1544
288.15 K, x2 = 0.5035	1143.12	1559
288.15 K, x2 = 0.6083	1158.14	1568
288.15 K, x2 = 0.7023	1170.82	1575
288.15 K, x2 = 0.8291	1187.12	1580
288.15 K, x2 = 0.9381	1199.91	1583
293.15 K, x2 = 0	1020.2	1434
293.15 K, x2 = 0.0308	1030.69	1445
293.15 K, x2 = 0.1053	1054.73	1473
293.15 K, x2 = 0.2065	1082.85	1499
293.15 K, x2 = 0.3137	1106.71	1517
293.15 K, x2 = 0.4002	1122.56	1531
293.15 K, x2 = 0.5035	1138.99	1546
293.15 K, x2 = 0.6083	1154.16	1555
293.15 K, x2 = 0.7023	1167.07	1563
293.15 K, x2 = 0.8291	1183.25	1572
293.15 K, x2 = 0.9381	1196.01	1574
298.15 K, x2 = 0	1015.79	1416
298.15 K, x2 = 0.0308	1026.51	1428
298.15 K, x2 = 0.1053	1050.61	1457
298.15 K, x2 = 0.2065	1078.49	1483
298.15 K, x2 = 0.3137	1102.51	1503
298.15 K, x2 = 0.4002	1118.58	1518
298.15 K, x2 = 0.5035	1135.22	1533
298.15 K, x2 = 0.6083	1150.52	1543
298.15 K, x2 = 0.7023	1163.46	1551
298.15 K, x2 = 0.8291	1180	1560
298.15 K, x2 = 0.9381	1192.92	1563
303.15 K, x2 = 0	1011.36	1399
303.15 K, x2 = 0.0308	1022.02	1411
303.15 K, x2 = 0.1053	1046.36	1441
303.15 K, x2 = 0.2065	1074.58	1468
303.15 K, x2 = 0.3137	1098.6	1489
303.15 K, x2 = 0.4002	1114.55	1504
303.15 K, x2 = 0.5035	1131.18	1519
303.15 K, x2 = 0.6083	1146.73	1530
303.15 K, x2 = 0.7023	1160.08	1539
303.15 K, x2 = 0.8291	1176.92	1546
303.15 K, x2 = 0.9381	1189.62	1552
308.15 K, x2 = 0	1006.92	1382
308.15 K, x2 = 0.0308	1017.5	1395
308.15 K, x2 = 0.1053	1042	1425
308.15 K, x2 = 0.2065	1070.56	1453
308.15 K, x2 = 0.3137	1094.68	1474
308.15 K, x2 = 0.4002	1110.65	1490
308.15 K, x2 = 0.5035	1127.3	1506
308.15 K, x2 = 0.6083	1142.95	1517
308.15 K, x2 = 0.7023	1156.36	1526
308.15 K, x2 = 0.8291	1173.24	1534
308.15 K, x2 = 0.9381	1185.91	1540
313.15 K, x2 = 0	1002.47	1366
313.15 K, x2 = 0.0308	1013.14	1378
313.15 K, x2 = 0.1053	1037.68	1409
313.15 K, x2 = 0.2065	1066.49	1437
313.15 K, x2 = 0.3137	1090.91	1460
313.15 K, x2 = 0.4002	1107.01	1477
313.15 K, x2 = 0.5035	1123.64	1493
313.15 K, x2 = 0.6083	1139.19	1505
313.15 K, x2 = 0.7023	1152.49	1514
313.15 K, x2 = 0.8291	1169.38	1523
313.15 K, x2 = 0.9381	1182.2	1529
318.15 K, x2 = 0	998.009	1349
318.15 K, x2 = 0.0308	1008.9	1362
318.15 K, x2 = 0.1053	1033.44	1393
318.15 K, x2 = 0.2065	1062	1422
318.15 K, x2 = 0.3137	1086.38	1447
318.15 K, x2 = 0.4002	1102.75	1464
318.15 K, x2 = 0.5035	1119.79	1480
318.15 K, x2 = 0.6083	1135.51	1494
318.15 K, x2 = 0.7023	1148.84	1503
318.15 K, x2 = 0.8291	1165.68	1512
318.15 K, x2 = 0.9381	1178.57	1519
